Laboratory results from patent US20240285545A1, “NANOSUSPENSION FORMULATION FOR TREATMENT OF PULMONARY FIBROSIS” (The Johns Hopkins University, priority 2023, published 2024).

How the values were obtained:
silicotic animals = conditions: daily oral 100 mg/kg; model with lower silica dose (2.5 mg/mouse); cited from earlier work
[1] = free-base form; cited from earlier work
[2] = oral administration of 100 mg/kg NTB, prior studies; cited from earlier work
[3] = tested on: silica-induced pulmonary fibrosis model; assay: Therapeutic efficacy in silica-induced pulmonary fibrosis model (histology, lung mechanics); type: in vivo, C57BL/6 mice; conditions: oral 100 mg/kg daily
Description: The Study design for assessing the therapeutic efficacy of NTB-NS in a preclinical silica-induced pulmonary fibrosis model is shown in FIG. 7. The silicosis model was established by a single intratracheal instillation of silica microparticles (800 mg/kg) into the lungs of C57BL/6 mice (Silicosis); in parallel, healthy control animals received saline in an identical manner (Control). Fifteen days after the silica instillation, animals were randomly assigned to different groups to receive oral daily doses of NTB-Esy at 100 mg/kg or intratracheal NTB-NS at a NTB dose of 0.1 or 1 mg/kg every 72 hours. Lungs were harvested for analysis at Day 34. IT: intratracheal; OR: oral. […]
For lung mechanics analysis at the end of treatments, mice were sedated with diazepam (1 mg/kg, intraperitoneal), anesthetized with thiopenthal sodium (20 mg/kg, intraperitoneal), tracheotomized, paralyzed with vecuronium bromide (0.005 mg/kg, intravenous), and ventilated with a constant flow ventilator (Samay VR 15, Montevideo, Uruguay) using the following parameters: frequency 100 breaths/min; tidal volume 0.2 mL; fraction of inspired oxygen 0.21. […] Data were analyzed using ANADAT data analysis software (RHT-InfoData Inc., Montreal Canada).
For histological analysis, left lung tissues were fixed with 4% paraformaldehyde and embedded in paraffin blocks. […] The granuloma fraction was calculated as follows: […]

Structure (SMILES): COC(=O)c1ccc2c(c1)NC(=O)/C2=C(\Nc1ccc(N(C)C(=O)CN2CCN(C)CC2)cc1)c1ccccc1 [NTB, Nintedanib]
- Fibrotic score in the lungs of silicotic animals (silicotic animals): significantly reduces
- Aqueous solubility [1]: low aqueous solubility
- Amount of drug available in mouse lungs [2]: approximately 2.5 μg

Structure (SMILES): CCS(=O)(=O)O.COC(=O)c1ccc2c(c1)NC(=O)/C2=C(\Nc1ccc(N(C)C(=O)CN2CCN(C)CC2)cc1)c1ccccc1 [NTB-Esy, NTB Esylate]
- Area of collagen deposition in alveolar septa versus untreated silicotic animals [3]: unlike 100 mg/kg oral NTB-Esy, significantly reduced
- Static lung elastance (Est,L) [3]: unlike oral NTB-Esy (100 mg/kg, daily), significantly decreased
